Laboratory results published in patent US6194424A, “Arylacetamides and their use as medicaments” (Bayer Aktiengesellschaft, priority 1996, dated 2001).
pIC50: −log10 of the molar value.

Test system: ApoB-100-associated lipoproteins (HepG2 cells)
Experiment: Inhibition of the release of ApoB-100-associated lipoproteins from HepG2 liver cells (immunoassay of culture supernatant)
Assay type: cell-based
Settings: Homo sapiens, substance concentration at which light absorption (450 nm) is inhibited by 50% vs solvent control, read-out: Apo B IC50
Experimental: The test for detection of the inhibition of the release of ApoB-100-associated lipoproteins from liver cells was carried out in vitro using cultured liver cells, preferably using cells of the human line HepG2. These cells are cultured under standard conditions in medium for the culture of eucaryotic cells, preferably in RPMI 1640 using 10% foetal calf serum. HepG2 cells synthesize and secrete into the culture supernatant ApoB-100-associated lipoprotein particles, which in principle are of similar construction to the VLDL or LDL particles which are to be, found in the plasma.
These particles can be detected using an immunoassay for human LDL. This immunoassay is carried out using antibodies which have been induced under standard conditions in the rabbit to human LDL. The anti-LDL antibodies (rabbit anti-LDL-Ab) were purified by affinity chromatography on an immunosorbent using human LDL. These purified rabbit anti-LDL-Ab are adsorbed onto the surface of plastic. […] The immune complex on the plastic surface is detected using monoclonal antibodies which have been induced against human LDL and purified according to standard conditions. […] After acidification of the reaction mixture with H2 SO4, the specific light absorption at 450 nm is determined, which is a measure of the amount of ApoB-100-associated particles which have been secreted into the culture supernatant by the HepG2 cells. […]

| Structure (SMILES) | pIC50 |
| --- | --- |
| CCCCCNC(=O)[C@H](c1ccc(Cn2c3ccccc3c3c(C)cc(C)nc32)cc1)C1CCCC1 [Example 20] | 7.90 |
| Cc1cc(C)c2c3ccccc3n(Cc3ccc([C@@H](C(=O)Nc4ccccc4)C4CCCC4)cc3)c2n1 [Example 2] | 8.09 |
